Here are results for 24 compounds from ChEMBL document CHEMBL5352493, “Dual inhibitors of ASK1 and PDK1 kinases: Design, synthesis, molecular docking and mechanism studies of N-benzyl pyridine-2-one containing derivatives as anti-fibrotic agents” (Eur J Med Chem, 2023).

The structures appear in SMILES notation.

A short description of data set [1]: Antiproliferative against HLF1 cells measured after 48 hrs by CCK8 assay. Type of data set: toxicity, cell-based. As to conditions: human, HFL1 cells (description prints HLF1).
Data set [2] is described as follows: Antiproliferative against rat NRK-49F cells measured after 48 hrs by CCK8 assay. Type of data set: toxicity, cell-based.
The target in data set [3] is T1, Mitogen-activated protein kinase kinase kinase 5 (Homo sapiens, UniProt Q99683).
T1 sequence (Q99683 whole entry): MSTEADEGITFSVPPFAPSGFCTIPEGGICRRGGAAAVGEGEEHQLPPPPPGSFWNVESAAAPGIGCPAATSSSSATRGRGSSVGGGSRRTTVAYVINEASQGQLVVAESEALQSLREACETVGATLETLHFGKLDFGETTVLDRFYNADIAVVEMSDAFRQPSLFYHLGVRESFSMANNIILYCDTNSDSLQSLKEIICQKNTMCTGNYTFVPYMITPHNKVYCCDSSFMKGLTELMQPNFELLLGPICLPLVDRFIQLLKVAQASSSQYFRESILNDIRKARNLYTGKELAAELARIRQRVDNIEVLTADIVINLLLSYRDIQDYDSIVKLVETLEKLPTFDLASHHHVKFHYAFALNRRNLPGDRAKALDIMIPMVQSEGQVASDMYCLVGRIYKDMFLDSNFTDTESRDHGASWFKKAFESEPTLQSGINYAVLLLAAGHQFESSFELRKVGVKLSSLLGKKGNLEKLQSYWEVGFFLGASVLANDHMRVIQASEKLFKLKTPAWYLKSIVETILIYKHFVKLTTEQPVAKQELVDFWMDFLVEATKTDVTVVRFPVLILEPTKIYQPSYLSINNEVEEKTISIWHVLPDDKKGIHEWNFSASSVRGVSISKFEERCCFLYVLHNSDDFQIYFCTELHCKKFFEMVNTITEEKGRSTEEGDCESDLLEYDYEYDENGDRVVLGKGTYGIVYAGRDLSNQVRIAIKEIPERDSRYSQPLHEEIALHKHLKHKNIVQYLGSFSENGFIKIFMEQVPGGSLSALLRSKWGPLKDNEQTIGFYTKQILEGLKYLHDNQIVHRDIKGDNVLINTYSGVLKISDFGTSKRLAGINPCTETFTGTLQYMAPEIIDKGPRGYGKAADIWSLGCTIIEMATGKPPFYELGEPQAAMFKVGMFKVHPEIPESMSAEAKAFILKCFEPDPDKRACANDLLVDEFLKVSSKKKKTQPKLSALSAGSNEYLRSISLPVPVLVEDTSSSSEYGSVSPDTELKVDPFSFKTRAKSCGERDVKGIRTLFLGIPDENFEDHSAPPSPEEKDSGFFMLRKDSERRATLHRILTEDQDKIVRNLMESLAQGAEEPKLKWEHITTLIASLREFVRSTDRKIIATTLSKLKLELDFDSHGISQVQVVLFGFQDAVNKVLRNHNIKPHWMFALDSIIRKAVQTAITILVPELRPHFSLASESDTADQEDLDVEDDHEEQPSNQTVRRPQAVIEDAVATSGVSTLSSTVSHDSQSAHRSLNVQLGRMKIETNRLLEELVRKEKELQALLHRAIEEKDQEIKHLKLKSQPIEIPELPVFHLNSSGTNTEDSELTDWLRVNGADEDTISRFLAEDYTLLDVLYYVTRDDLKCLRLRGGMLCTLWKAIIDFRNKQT
Kind of data set: Inhibition of human recombinant ASK1 using MBP as substrate preincubated for 1 hr followed by reagent addition incubated for 40 mins by ATP-Glo kinase assay.

A short description of data set [4]: Antiproliferative against rat HSC-T6 cells measured after 48 hrs by CCK8 assay. Type of data set: toxicity, cell-based.
The nature of data set [5]: Antiproliferative against human BEAS-2B cells measured after 48 hrs by CCK8 assay. Format: toxicity, cell-based.
The target of data set [6] is T1, Mitogen-activated protein kinase kinase kinase 5. Kind of data set: Inhibition of ASK1 (unknown origin).

As to `O=C(Nc1cccc(-c2nncn2C2CC2)n1)c1cc(-c2ccc3[nH]ccc3c2)cn(Cc2ccccc2F)c1=O`, the half-inhibitory concentration (IC50) (usually the concentration that inhibits the measured activity by half) at 48 h in data set [1] is 18.7 µM; in data set [2], 5.75 µM; in data set [4] it was above 80 µM. In data set [3], the IC50 was above 5000 nM.
For `Cn1nc(C(F)(F)F)c2cc(C(=O)Nc3cccc(-c4nncn4C4CC4)n3)c(OCc3ccccc3F)nc21`, in that order: 62.5 µM, 55.2 µM, above 80 µM and 1290 nM.
Regarding `O=C(Nc1cccc(-c2nncn2C2CC2)c1)c1cc(-n2cnc(C3CC3)c2)ccn1`, the IC50 at 48 h in data set [1] worked out at 67.9 µM; in data set [2], 34.4 µM; in data set [4] it was 33.4 µM; in data set [5], 90.2 µM.
With `CCn1c(=O)c(C(=O)Nc2cccc(-c3nncn3C3CCCCC3)n2)cc2c(C(F)(F)F)nn(C)c21`, the half-inhibitory concentration (IC50) at 48 h in data set [1], in data set [2] and in data set [4] was above 80 µM throughout. The 50% inhibitory concentration (IC50) in data set [3] came out at 1570 nM.
`O=C(Nc1cccc(-c2nncn2C2CC2)n1)c1cc(-c2cccnc2)cn(Cc2ccccc2F)c1=O`: the IC50 at 48 h was 64.2 µM in data set [1], above 80 µM in data set [2] and above 80 µM in data set [4]. In addition, in data set [3], the IC50 was above 5000 nM.
Turning to `Cn1nc(C(F)(F)F)c2cc(C(=O)Nc3cccc(-c4nncn4C4CCCCC4)n3)c(=O)[nH]c21`, the IC50 at 48 h in data set [1], in data set [2] and in data set [4] was above 80 µM in each case. Besides, the IC50 in data set [3] was above 5000 nM.
In the case of `O=C(Nc1cccc(-c2nncn2C2CC2)n1)c1cc(-c2cnc(Cl)nc2)cn(Cc2ccccc2F)c1=O`, the values for the IC50 at 48 h in data set [1], in data set [2] and in data set [4] were 29.2 µM, above 80 µM and above 80 µM, respectively. The half-inhibitory concentration (IC50) in data set [3] was determined as 2370 nM.
In the case of `Cn1nc(C(F)(F)F)c2cc(C(=O)Nc3cccc(-c4nncn4C4CCCCC4)c3)c(=O)[nH]c21`, the IC50 at 48 h in data set [1], in data set [2] and in data set [4] was above 80 µM each time. Also, in data set [3], the IC50 was above 5000 nM.
With `O=C(Nc1cccc(-c2nncn2C2CC2)n1)c1cc(-c2cnn(C(F)F)c2)cn(Cc2ccccc2F)c1=O`, the IC50 at 48 h was above 80 µM in data set [1], 58.5 µM in data set [2] and above 80 µM in data set [4]. Further, the IC50 in data set [3] is 291 nM.
For `CCCCn1cnnc1-c1cccc(NC(=O)c2cc3c(C(F)(F)F)nn(C)c3[nH]c2=O)n1`, the half-maximal inhibitory concentration (IC50) at 48 h in data set [1], in data set [2] and in data set [4] was above 80 µM each time. Besides, the IC50 in data set [3] was determined as 978 nM.
In the case of `Cn1nc(C(F)(F)F)c2cc(C(=O)Nc3cccc(-c4nncn4C4CC4)n3)c(=O)[nH]c21`, the IC50 at 48 h in data set [1], in data set [2] and in data set [4] was above 80 µM throughout. The IC50 in data set [3] amounted to 489 nM.
For `Cn1nc(C(F)(F)F)c2cc(C(=O)Nc3cccc(-c4nncn4C4CCCC4)n3)c(=O)[nH]c21`, the IC50 at 48 h in data set [1], in data set [2] and in data set [4] was above 80 µM in each case. In data set [3], the IC50 came out at 2180 nM.
Turning to `Cc1cc(F)c(C(=O)Nc2cccc(-c3nncn3C(C)C)c2)cc1-n1cnc(C2CC2)c1`, in data set [6], the half-maximal inhibitory concentration (IC50) came out at 12.9 nM.
With `Cn1nc(C(F)(F)F)c2cc(C(=O)Nc3cccc(-c4nncn4C4CCCC4)n3)c(OCc3ccccc3F)nc21`, the IC50 at 48 h was determined as 7.99 µM in data set [1], 11.4 µM in data set [2] and 14.8 µM in data set [4]. Moreover, in data set [3], the IC50 amounted to 1020 nM.
For `Cn1nc(C(F)(F)F)c2cc(C(=O)Nc3cccc(-c4nncn4C4CCCC4)c3)c(=O)[nH]c21`, in that order: above 80 µM, above 80 µM, above 80 µM and above 5000 nM.
For `CC(C)n1cnnc1-c1cccc(NC(=O)c2cc3c(C(F)(F)F)nn(C)c3nc2OCc2ccccc2F)n1`, in that order: 17.9 µM, above 80 µM, above 80 µM and above 5000 nM.
For `O=C(Nc1cccc(-c2nncn2C2CC2)n1)c1cc(-c2cnn(C3CCC3)c2)cn(Cc2ccccc2F)c1=O`, in that order: 10.7 µM, above 80 µM, above 80 µM and 289 nM.
For `O=C(N[C@@H](COc1ccc2[nH]c(=O)[nH]c2c1)c1ccccc1)c1cccn(Cc2ccc(F)c(F)c2)c1=O`, the half-inhibitory concentration (IC50) at 48 h in data set [1] amounted to 64.8 µM; in data set [2], 40.4 µM; in data set [4] it was 36.2 µM; in data set [5], 96.4 µM. Further, the IC50 in data set [3] was above 5000 nM.
Take `O=C(Nc1cccc(-c2nncn2C2CC2)n1)c1cc(Br)cn(Cc2ccccc2F)c1=O`: the half-inhibitory concentration (IC50) at 48 h in data set [1], in data set [2] and in data set [4] was above 80 µM each time. For the same compound, the IC50 in data set [3] is above 5000 nM.
In the case of `CC(C)n1cnnc1-c1cccc(NC(=O)c2cc3c(C(F)(F)F)nn(C)c3n(C)c2=O)c1`, the concentration for half-maximal inhibition (IC50) at 48 h in data set [1] was above 80 µM; in data set [2] it was 56.1 µM; in data set [4] it was above 80 µM. Further, the IC50 in data set [3] is above 5000 nM.
Consider `CC(C)n1cnnc1-c1cccc(NC(=O)c2cc3c(C(F)(F)F)nn(C)c3[nH]c2=O)c1`, for which the IC50 at 48 h in data set [1], in data set [2] and in data set [4] was above 80 µM each time. The IC50 in data set [3] was above 5000 nM.
Regarding `CC(C)n1cnnc1-c1cccc(NC(=O)c2cc3c(C(F)(F)F)nn(C)c3[nH]c2=O)n1`, the IC50 at 48 h in data set [1], in data set [2] and in data set [4] was above 80 µM each time. The IC50 in data set [3] stood at 2660 nM.
As to `O=C(Nc1cccc(-c2nncn2C2CC2)n1)c1cc(-c2cccc3[nH]ccc23)cn(Cc2ccccc2F)c1=O`, the results for the half-maximal inhibitory concentration (IC50) at 48 h in data set [1], in data set [2] and in data set [4] were above 80 µM, 47 µM and above 80 µM, respectively. Moreover, the IC50 in data set [3] was above 5000 nM.
`O=C(Nc1cccc(-c2nncn2C2CC2)n1)c1cc(-c2ccc3scnc3c2)cn(Cc2ccccc2F)c1=O`: the IC50 at 48 h in data set [1] was 68.3 µM; in data set [2] it was 34.2 µM; in data set [4], above 80 µM. Besides, in data set [3], the half-maximal inhibitory concentration (IC50) was above 5000 nM.
